Reference: paper PMC9820430, “New Affordable Methods for Large-Scale Isolation of Major Olive Secoiridoids and Systematic Comparative Study of Their Antiproliferative/Cytotoxic Effect on Multiple Cancer Cell Lines of Different Cancer Origins” (International Journal of Molecular Sciences, 2022)
Like-named read-outs stand apart in the source and are kept apart here.

Columns and labels:
AGS = test: Annexin V-FITC/PI staining, flow cytometry; type: cell-based, human; conditions: 48 h at EC50
Source text: (§1) To discern whether cell death triggered by OOPs treatment occurred via apoptosis or necrosis under the experimental conditions applied in this study, live cells treated with OOPs were stained simultaneously with FITC-conjugated annexin V and propidium iodide (PI). Annexin V binds to phosphatidylserine (PS) translocating from the inner to the outer leaflet of the plasma membrane in apoptotic cells. Therefore, annexin V-FITC binding to PS labels live apoptotic cells with green FL. […] PS exposure to the extracellular space and cell membrane permeability were analyzed by flow cytometry as described in detail in the Experimental Section. […] OOP concentrations used were equal to the EC50 values for each cell line (Table 1). annexin V and PI staining discriminated between early- (i.e., annexin V +ve and PI −ve) and late-apoptotic cells (i.e., annexin V +ve and PI +ve), as well as between necrotic (i.e., annexin V −ve and PI +ve) and live (i.e., annexin V −ve and PI −ve) cells (Table 4).
(§2) Apoptosis and necrosis were assessed by double staining with annexin V-FITC and propidium iodide (PI) and were analyzed using flow cytometry (FACS). Human cancer cells were plated in 96-well culture plates in 100 μL of complete medium and were allowed to adhere overnight (~16 h). […] In detail, 0.5 μL of a 500× stock of each tested compound in DMSO was added directly into each well in a final volume of 250 μL culture medium and was gently mixed by pipetting. Control wells were prepared under the same experimental conditions by adding only DMSO at a final concentration of 0.2% (v/v). At the end of the treatment, the cells were detached by trypsinization, media with serum was added to deactivate trypsin, and the cells from three wells were pooled together by centrifugation (1000 rpm, 5 min, 24 °C), washed with cold PBS, centrifuged (1000 rpm, 5 min, 24 °C) and finally resuspended in cold 1× annexin V binding buffer (10 mM HEPES pH = 7.4, 150 mM NaCl, 2.5 mM CaCl2) at a density of 10^4 cells/mL. Staining was performed by incubating with annexin V- FITC and propidium iodide (PI; BioLegend) for 15 min at room temperature in the dark, according to the manufacturer’s instructions. Negative control samples consisted of cells treated only with 0.2% (v/v) DMSO for the same incubation time length (i.e., 48 h). Cells treated with Triton X-100 (0.25% (v/v)) for 5 min at 4 °C were used as controls for 100% permeabilization of the plasma membrane and maximum fluorescence staining with PI (positive control for cells in necrosis). The presence of live, apoptotic or necrotic cells was assessed with the FACS Calibur (Becton–Dickinson, San Jose, CA, USA). In total, 10,000 cells were analyzed per measurement and the acquired data were analyzed using the FlowJo V.10.0.8 software (Tree Star Inc., Ashland, OR, USA). Each condition was analyzed in duplicate, and the results presented are from 2 or 3 independent experiments.
(§3) Data showing OOPs’ apoptotic/necrotic effect were derived from two or three independent experiments and were presented as the means ± SE of the percentage (%) of both annexin V-positive cells (early apoptotic events) and % of annexin V/PI positive cells (late apoptotic events) over the whole cell population normalized to the corresponding events of the control cells, as determined using the FlowJo software.

SK-BR-3 = test: Annexin V-FITC/PI staining, flow cytometry; type: cell-based, human; conditions: 48 h at EC50
Source text: as §1, §2, §3

PANC-1 = test: Annexin V-FITC/PI staining, flow cytometry; type: cell-based, human; conditions: 48 h at EC50
Source text: as §1, §2, §3

H1299 = test: Annexin V-FITC/PI staining, flow cytometry; type: cell-based, human; conditions: 48 h at EC50
Source text: as §1, §2, §3

WJ-MSC = test: ATP-based luminescence cell viability assay (ViaLight), 72 h; parameters: species or system human; conditions: WJ-MSC (mesenchymal cells), 72 h treatment, read-out: EC50 Values of Olive Oil Polyphenols
Procedure: The antiproliferative/cytotoxic effects of the selected OOPs on each cell line were assessed by measuring the cellular ATP levels after 72 h treatments using an ATP-based luminescence assay [73]. […] The EC50 values were calculated by nonlinear regression (curve fit) using a sigmoidal dose–response equation (Figure 2A and Figure S2).
Briefly, after the treatment with OOPs, the adapted medium was removed from the dish wells and the cells were washed twice with medium without FBS. Then, the C-lysis (LT27-076) was diluted in PBS (1:2) and a volume of 50 μL was added to each well. Cells were incubated with C-lysis for at least 10 min. […] Cell viability was quantified by measuring luminescence using a multi-mode microplate reader Safire^2 Tecan (software Magellan V6.00 STD.2PC WIN.20000/XP).

[1] = test system: sixteen human cancer cell lines originating from eight different tissues; test: ATP-based luminescence cell viability assay, whole panel; conditions: for Bioactivity range on cancer cell lines (grade in words): Figure 3, sixteen cancer cell lines; for EC50: 72 h treatment
Procedure: The antiproliferative/cytotoxic effects of the selected OOPs on each cell line were assessed by measuring the cellular ATP levels after 72 h treatments using an ATP-based luminescence assay. This assay, initially developed as a tumor chemosensitivity assay, has shown considerable promise as a general in vitro toxicity assay due to its high sensitivity that allows the detection of a small number of cells. Consequently, it can be applied to both cancer cell lines and primary tissue cells. […] The EC50 values were calculated by nonlinear regression (curve fit) using a sigmoidal dose–response equation (Figure 2A and Figure S2).
The OOPs tested in this study were first dissolved in an appropriate DMSO volume such as to prepare a final stock solution of 50 mM, which was further used to prepare various compound concentrations in DMSO-based solutions. The final DMSO concentration in the cell culture was maintained constant in all treated groups of any given experiment and never exceeded the value of 0.2% (v/v). For the treatment experiments, cells were plated in 96-well culture plates, in 100 μL of complete medium at a seeding density of 5000–10,000 cells/well—depending on cells’ size and doubling time—and were allowed to adhere overnight (~16 h). The next day, 150 μL of complete medium was added to each well and the cells were treated with various concentrations of OOPs. Each concentration was tested in triplicate and was repeated 2–3 times. To prepare the final concentration solutions, 0.5 μL of a 500× stock of each tested compound in DMSO was added directly into each well in a final volume of 250 μL culture medium and was gently mixed by pipetting. Control wells were prepared under the same experimental conditions by adding only DMSO at a final concentration of 0.2% (v/v). Compounds were not renewed during the entire period of cell exposure. All cells were cultured at 37 °C in a 5% (v/v) CO2 for 24, 48 or 72 h.
Briefly, after the treatment with OOPs, the adapted medium was removed from the dish wells and the cells were washed twice with medium without FBS. Then, the C-lysis (LT27-076) was diluted in PBS (1:2) and a volume of 50 μL was added to each well. Cells were incubated with C-lysis for at least 10 min. Finally, an equal volume of lysed cells from each well and ATP monitoring reagent (AMR; LT27-212) was transferred to the wells of a white-walled illuminometer plate (Greiner bio-one; 655074). Cell viability was quantified by measuring luminescence using a multi-mode microplate reader Safire^2 Tecan (software Magellan V6.00 STD.2PC WIN.20000/XP).

MCF-10A cells = test system: MCF-10A cells; parameters: method as in PMID 23403296, PMID 33117773, PMID 24849787, PMID 30964898; conditions: cited from earlier work
[2] = Homo sapiens, range across cancer cell lines, read-out: EC50, range over the cancer cell lines

EC50 [1, 2]	Compound	% Cell Viability (AGS)	Early Apoptotic (% ± S.D.) (AGS)	Late Apoptotic (% ± S.D.) (AGS)	Total Apoptotic (%) (AGS)	% Cell Viability (SK-BR-3)	Early Apoptotic (% ± S.D.) (SK-BR-3)	Late Apoptotic (% ± S.D.) (SK-BR-3)	Total Apoptotic (%) (SK-BR-3)	% Cell Viability (PANC-1)	Early Apoptotic (% ± S.D.) (PANC-1)	Late Apoptotic (% ± S.D.) (PANC-1)	Total Apoptotic (%) (PANC-1)	% Cell Viability (H1299)	Early Apoptotic (% ± S.D.) (H1299)	Late Apoptotic (% ± S.D.) (H1299)	Total Apoptotic (%) (H1299)	EC50 (WJ-MSC; Homo sapiens)	Bioactivity range on cancer cell lines (grade in words) [1]	also measured
11.9 to 50.1 µM	COC(=O)C1=COC(C)[C@@H](C=O)[C@@H]1CC(=O)OCCc1ccc(O)c(O)c1 (mixture of isomers) [3a,b, oleuropein aglycone]	31%	19.40 ± 0.6%	8.08 ± 2.0%	27.48 ± 1.4%	59%	7.63 ± 1.9%	No L.A.	7.63 ± 1.9%	40%	8.52 ± 2.3%	3.01 ± 2.0%	11.52 ± 4.3%	40%	9.14 ± 3.1%	5.44 ± 2.2%	14.58 ± 5.3%	28.7 ± 0.3 µM	Very strong activity on 7/16 cancer cell lines	sensitivity of cells to treatment (MCF-10A cells; 150 μM): resistant
9.1 to 44.6 µM	C/C=C(/C=O)[C@@H](CC=O)CC(=O)OCCc1ccc(O)cc1 [compound 1, oleocanthal]	33%	18.42 ± 4.4%	4.94 ± 3.1%	23.36 ± 1.4%	59%	7.45 ± 4.4%	1.26 ± 0.7%	8.71 ± 5.1%	60%	4.47 ± 0.8%	No L.A.	4.47 ± 0.8%	57%	4.77 ± 0.9%	7.27 ± 0.2%	–	–	Very strong activity on 10/16 cancer cell lines	EC50 ([1]; Homo sapiens, most cancer cell lines, read-out: EC50 in most cancer cell lines): 9 to 20 µM; sensitivity of cells to treatment (MCF-10A cells; 40 μM): resistant
> 25 µM	C/C=C(/C=O)[C@@H](CC=O)CC(=O)OCCc1ccc(O)c(O)c1 [compound 2, oleacein]	41%	10.00 ± 1.3%	4.55 ± 1.8%	14.55 ± 3.1%	60%	5.78 ± 0.9%	No L.A.	5.78 ± 0.9%	58%	4.39 ± 1.8%	No L.A.	4.39 ± 1.8%	40%	5.96 ± 1.6%	3.07 ± 1.8%	9.03 ± 0.2%	28.2 ± 11.1 µM	Good/moderate activity on 9/16 cancer cell lines	–
–	ligstroside aglycone [4a,b]	36%	16.03 ± 0.8%	7.77 ± 1.8%	23.79 ± 2.6%	87%	1.30 ± 0.3%	No L.A.	1.30 ± 0.3%	34%	12.37 ± 2.7%	4.42 ± 0.4%	16.78 ± 3.1%	–	–	–	–	–	Very strong activity on lung cancer cell lines	EC50 (WJ-MSC): 39.3 ± 3.8 µM; EC50 ([1]; range across cancer cell lines, read-out: EC50, range over the cancer cell lines): 11.6 to 98.2 µM; sensitivity of cells to treatment (MCF-10A cells; 50 μM): resistant
